Laboratory results published in ChEMBL document CHEMBL4431371, “Targeting the Cystic Fibrosis Transmembrane Conductance Regulator (CFTR) Protein for the Treatment of Cystic Fibrosis” (ACS Med Chem Lett, 2016).

What was measured:
[1] = tested on: Cystic fibrosis transmembrane conductance regulator (Homo sapiens), P13569 [F508del]; test: (§1) Corrector activity at CFTR F508del mutant (unknown origin) expressed in human CFBE41o cells incubated for 18 to 24 hrs by CSE-HRP assay; format: cell-based
[2] = biological target: T1, Cystic fibrosis transmembrane conductance regulator (Homo sapiens, UniProt P13569, F508DEL); test: as §1; format: cell-based
[3] = tested on: Cystic fibrosis transmembrane conductance regulator (Homo sapiens), P13569 [F508del]; test: (§2) Corrector activity at CFTR F508del mutant in human bronchial epithelial cells incubated for 18 to 24 hrs by TECC-based conductance assay
[4] = biological target: T1, Cystic fibrosis transmembrane conductance regulator; test: as §2

T1 sequence (P13569 as listed by the source): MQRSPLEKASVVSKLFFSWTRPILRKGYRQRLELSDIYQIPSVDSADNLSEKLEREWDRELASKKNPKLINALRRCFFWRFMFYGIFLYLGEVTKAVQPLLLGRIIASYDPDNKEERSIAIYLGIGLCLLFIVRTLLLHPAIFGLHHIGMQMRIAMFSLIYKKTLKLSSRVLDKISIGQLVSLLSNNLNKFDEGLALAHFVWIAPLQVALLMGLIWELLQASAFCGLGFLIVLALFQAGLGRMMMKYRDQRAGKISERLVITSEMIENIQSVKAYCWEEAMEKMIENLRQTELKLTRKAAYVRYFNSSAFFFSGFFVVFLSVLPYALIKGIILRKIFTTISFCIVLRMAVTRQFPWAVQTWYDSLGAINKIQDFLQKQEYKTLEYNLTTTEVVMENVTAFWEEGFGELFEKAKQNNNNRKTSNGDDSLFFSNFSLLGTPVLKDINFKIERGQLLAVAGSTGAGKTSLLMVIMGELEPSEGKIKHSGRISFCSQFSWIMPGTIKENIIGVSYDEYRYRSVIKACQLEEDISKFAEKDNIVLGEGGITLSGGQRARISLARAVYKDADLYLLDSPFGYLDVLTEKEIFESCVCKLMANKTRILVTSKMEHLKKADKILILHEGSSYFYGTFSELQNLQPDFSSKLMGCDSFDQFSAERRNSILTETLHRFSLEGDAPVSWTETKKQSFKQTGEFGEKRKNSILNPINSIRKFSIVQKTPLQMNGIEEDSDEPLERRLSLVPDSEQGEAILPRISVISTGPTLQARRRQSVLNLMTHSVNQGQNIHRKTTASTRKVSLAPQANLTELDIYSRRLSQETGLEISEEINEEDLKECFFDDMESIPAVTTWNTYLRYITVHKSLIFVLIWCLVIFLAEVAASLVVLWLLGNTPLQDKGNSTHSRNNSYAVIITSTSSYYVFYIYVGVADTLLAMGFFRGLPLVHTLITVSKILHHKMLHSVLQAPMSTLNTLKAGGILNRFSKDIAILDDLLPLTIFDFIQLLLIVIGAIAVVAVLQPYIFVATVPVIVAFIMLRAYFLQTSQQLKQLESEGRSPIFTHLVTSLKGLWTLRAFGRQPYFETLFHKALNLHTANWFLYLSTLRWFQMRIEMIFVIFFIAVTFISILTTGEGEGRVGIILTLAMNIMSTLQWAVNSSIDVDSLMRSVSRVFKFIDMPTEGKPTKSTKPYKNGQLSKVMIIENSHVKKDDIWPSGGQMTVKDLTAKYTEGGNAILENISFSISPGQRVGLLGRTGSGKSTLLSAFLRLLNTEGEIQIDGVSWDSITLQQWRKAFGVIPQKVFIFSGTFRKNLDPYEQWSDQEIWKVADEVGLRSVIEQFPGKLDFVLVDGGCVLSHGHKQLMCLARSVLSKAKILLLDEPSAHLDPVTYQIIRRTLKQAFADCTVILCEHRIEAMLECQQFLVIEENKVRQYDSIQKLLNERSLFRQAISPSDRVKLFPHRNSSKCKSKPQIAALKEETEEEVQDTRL
Sequence of Cystic fibrosis transmembrane conductance regulator (Homo sapiens), P13569 [F508del] (P13569 as listed by the source): as above

SMILES | max activation [1] | EC50 [2] | max activation [3] | EC50 [4]
CCOC(=O)c1cc(C)cc([C@H]2C[C@@H](NC(=O)C3(c4ccc5c(c4)OC(F)(F)O5)CC3)C[C@@H](c3ccccc3)O2)c1 (racemic) | 106% | 1160 nM | – | –
O=C(O)c1cccc([C@H]2C[C@@H](NC(=O)C3(c4ccc5c(c4)OC(F)(F)O5)CC3)C[C@@H](c3ccccc3)O2)c1 | 109% | 280 nM | 94% | 100 nM
O=C(O)c1cccc([C@@H]2C[C@H](NC(=O)C3(c4ccc5c(c4)OC(F)(F)O5)CC3)C[C@H](c3ccccc3)O2)c1 | 16% | 20000 nM | – | –
O=C(O)c1cccc([C@H]2C[C@@H](NC(=O)C3(c4ccc5c(c4)OC(F)(F)O5)CC3)CCO2)c1 (racemic) | 71% | 850 nM | – | –
O=C(O)c1ccc([C@H]2C[C@@H](NC(=O)C3(c4ccc5c(c4)OC(F)(F)O5)CC3)C[C@@H](c3ccccc3)O2)cc1 | 81% | 300 nM | 73% | 260 nM
O=C(O)c1ccc([C@H]2C[C@@H](NC(=O)C3(c4ccc5c(c4)OC(F)(F)O5)CC3)CCO2)cc1 (racemic) | 113% | 2860 nM | 73% | 1340 nM
